The values below are quoted from earlier work in patent publication US7205293B2, “Benodiazepine spirohydantoin CGRP receptor antagonists” (Merck & Co., Inc., priority 2003, dated 2007).

Data set [1] deals with facial blood flow. The following applies: rat, trigeminal ganglion stimulation.
Data set [2] has as its system middle meningeal artery diameter. The following applies: rats, electrical stimulation of the dura mater, prior administration.
Data set [3] deals with facial blood flow. The following applies: marmoset, electrical stimulation of the trigeminal ganglion.

No end group written: not given here.

In the case of “CGRP(8–37): a peptide CGRP antagonist (VTHRLAGLLSRSGGVVKNNFVPTNVGSKAF; ends and bridges not checked; UniProt P06881 90-119, looked up, fragment)”, the “effect on increase of facial blood flow” value in the data set with facial blood flow [1] is “inhibited”. Moreover, the “effect on increase of middle meningeal artery diameter” value in data set [2] is “blocked”. As to `NCCCC[C@H](NC(=O)[C@@H](Cc1cc(Br)c(O)c(Br)c1)NC(=O)N1CCC(N2Cc3ccccc3NC2=O)CC1)C(=O)N1CCN(c2ccncc2)CC1` [BIBN4096BS], the “effect on increase in facial blood flow” value in the data set on facial blood flow [3] is “blocked”.
